Measured values published in US10206900B2, “Treatments for fibrotic diseases” (MOR RESEARCH APPLICATIONS LTD., priority 2013, dated 2019).

Experiments:
MMP-9 = MMP-9 activity by gelatin zymography in RPE cell supernatants; format: cell-based; conditions: RPE cells, SB431542 10 μM pretreatment, TGF-β1 2.5 ng/ml, 24 hours
Experimental: FIGS. 2A-2C TAK1 regulates RPE cells EMT phenotype upon TGF-β stimulation. FIG. 2A: RPE cells were serum-starved for 16 hours, pretreated with 5Z-7-oxozeaenol (1 μM) or left untreated for 1 hour. The cells were then treated with TGF-β1 (2.5 ng/ml) as described herein for 24 h and immunostained with α-SMA antibodies (red) and DAPI (blue). Representative photographs of three independent experiments. The histogram in the bottom panel represents quantification of α-SMA antibody pixel intensity. FIG. 2B: RPE cells were serum-starved for 16 hours, then treated with mitomycin C (10 ng/ml) for 3 h. Thereafter, pretreated with 5Z-7-oxozeaenol (1 μM) or Dimethyl sulfoxide (DMSO) for 1 hour. Following this process a scratch was performed in the cell monolayer and the serum free medium was supplemented with TGF-β1 (2.5 ng/ml) or left unsupplemented. Scratches were photo-documented at the indicated times (top panel) and their width was measured using Image-J software. […] Bars are Mean±SD. FIG. 2C: RPE cells were serum-starved for 16 hours then pretreated with 5Z-7-oxozeaenol (1 μM) or SB431542 (10 μM), or DMSO for 1 hour. […] Total MMP-9 activities were processed by gelatin zymography (top panel) and the band intensity values were calculated by Quantity One® 1-D analysis software. […] Data is expressed as the Mean±SD.

RPE cells = assay: Cell size / morphology (rhodamine-phalloidin staining) upon TGF-β1; format: cell-based; conditions: 5Z-7-oxozeaenol 1 μM or SB431542 10 μM prior to TGF-β1
Experimental: FIG. 3A: RPE cells were plated on fibronectin-coated glass coverslips, serum-starved for 16 hours, pretreated with 5Z-7-oxozeaenol (1 μM) or SB431542 (10 μM), or DMSO for 1 hour, then treated with or without TGF-β1 for 2 days. Following treatment, the cells were stained with rhodamine-phalloidin (actin fibers-red) and DAPI (blue) and visualized by confocal microscopy. Scale bars: […]. FIG. 3B: Serum-starved RPE cells pretreated with 5Z-7-oxozeaenol (1 μM) or DMSO for 1 hour, and were exposed to TGF-β as in FIG. 3A. Total RNA was extracted at each time point and qPCR was performed. Transcription levels of CTGF were determined after 6 h, 16 h and 24 h. Bars represent the specific mRNA amount relative to GAPDH mRNA in the same samples. All experiments were performed in triplicates. A representative histogram from two independent experiments is shown. FIG. 3C: RPE cells were plated and treated as in FIG. 3A. Following treatment, the cells were immunostained with E-cadherin antibodies (green) and DAPI (blue). Representative photographs of two independent experiments are shown. In addition to the secretion of MMPs and increased migratory capacity, several morphological changes underlie EMT (Lamouille et al., I 2007, 178:437-451). […]

NC(=O)c1ccc(-c2nc(-c3ccc4c(c3)OCO4)c(-c3ccccn3)[nH]2)cc1 [SB431542]
activation of MMP-9 by TGF-β1 (MMP-9): completely abolished the activation of MMP-9
TGF-β1-induced increase in cell size (hypertrophic RPE cells) (RPE cells): abolished the increase in cell size
